Measured values: US8093400B2, “Compounds useful in therapy” (Pfizer Inc., priority 2003, dated 2012)

Target: human V1A receptor (Homo sapiens, UniProt P37288)
Assay: V1A filter binding assay ([3H]-AVP binding to CHO-hV1A membranes)
Settings: screen 1.0, [3H]-AVP binding to CHO-hV1A membranes
Procedure: 1.0 V1A Filter Binding Assay
Receptor binding assays were performed on cellular membranes prepared from CHO cells stably expressing the human V1A receptor, (CHO-hV1A). The CHO-hV1A cell line was kindly provided under a licensing agreement by Marc Thibonnier, Dept. of Medicine, Case Western Reserve University School of Medicine, Cleveland, Ohio. CHO-hV1A cells were routinely maintained at 37° C. in humidified atmosphere with 5% CO2 in DMEM/Hams F12 nutrient mix supplemented with 10% fetal bovine serum, 2 mM L-glutamine, 15 mM HEPES and 400 μg/ml G418. For bulk production of cell pellets, adherent CHO-hV1A cells were grown to confluency of 90-100% in 850 cm^2 roller bottles containing a medium of DMEM/Hams F12 Nutrient Mix supplemented with 10% fetal bovine serum, 2 mM L-glutamine and 15 mM HEPES. Confluent CHO-hV1A cells were washed with phosphate-buffered saline (PBS), harvested into ice cold PBS and centrifuged at 1,000 rpm. Cell pellets were stored at −80° C. until use. Cell pellets were thawed on ice and homogenised in membrane preparation buffer consisting of 50 mM Tris-HCl, pH 7.4, 5 mM MgCl2 and supplemented with a protease inhibitor cocktail, (Roche). The cell homogenate was centrifuged at 1000 rpm, 10 min, 4° C. and the supernatant was removed and stored on ice. The remaining pellet was homogenised and centrifuged as before. The supernatants were pooled and centrifuged at 25,000×g for 30 min at 4° C. […] Protein concentration was determined using Bradford reagent and BSA as a standard.
Protein linearity followed by saturation binding studies were performed on each new batch of membrane. […] Saturation binding studies were then performed using various concentrations of [^3H]-arginine vasopressin, [^3H]-AVP (0.05 nM-100 nM) and the Kd and Bmax determined.
Compounds were tested for their effects on [^3H]-AVP binding to CHO-hV1A membranes, (^3H-AVP; specific activity 65.5 Ci/mmol; NEN Life Sciences). […] The plates were sealed and counted on a TopCount Microplate Scintillation Counter (Packard Instruments). Non-specific binding (NSB) was determined using 1 μM unlabelled d(CH2)5Tyr(Me)AVP ([β-mercapto-β,β-cyclopentamethylenepropionyl,0-Me-Tyr^2,Arg^8]-vasopressin) (βMCPVP), (Sigma). The radioligand binding data was analysed using a four parameter logistic equation with the min forced to 0%. […] Specific binding was calculated by subtracting the mean NSB cpm from the mean Total cpm. For test compounds the amount of ligand bound to the receptor was expressed as % bound=(sample cpm−mean NSB cpm)/specific binding cpm×100. […] The inhibitory dissociation constant (Ki) was calculated using the Cheng-Prusoff equation: Ki=IC50/(1+[L]/Kd) where [L] is the concentration of ligand present in the well and Kd is the dissociation constant of the radioligand obtained from Scatchard plot analysis. […]

Sequence of human V1A receptor (P37288 whole entry): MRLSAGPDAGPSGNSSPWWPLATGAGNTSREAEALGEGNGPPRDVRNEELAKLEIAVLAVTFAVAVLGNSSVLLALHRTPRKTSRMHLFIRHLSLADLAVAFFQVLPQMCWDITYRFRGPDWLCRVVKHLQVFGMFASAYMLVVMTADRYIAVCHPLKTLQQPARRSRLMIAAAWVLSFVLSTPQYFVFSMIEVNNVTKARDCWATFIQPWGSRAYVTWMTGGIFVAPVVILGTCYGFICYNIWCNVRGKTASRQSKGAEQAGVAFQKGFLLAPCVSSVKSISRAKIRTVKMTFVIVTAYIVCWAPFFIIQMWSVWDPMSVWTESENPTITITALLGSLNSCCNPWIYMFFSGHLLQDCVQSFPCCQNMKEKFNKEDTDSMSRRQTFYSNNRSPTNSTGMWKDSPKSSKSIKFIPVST

| SMILES | Ki [nM] |
| --- | --- |
| O=C(c1cc(F)cc(F)c1)N1CCC(c2nnc(Cn3nccn3)n2-c2ccc(Cl)cc2)CC1 [Example 165, {4-[4-(4-Chloro-phenyl)-5-[1,2,3]triazol-2-ylmethyl-4H-[1,2,4]triazol-3-yl]-piperidin-1-yl}-(3,5-difluoro-phenyl)-methanone] | 2.98 |
| O=C(c1n[nH]c2ccccc12)N1CCC(c2nnc(Cn3nccn3)n2-c2ccc(Cl)cc2)CC1 [Example 405, {4-[4-(4-Chloro-phenyl)-5-[1,2,3]triazol-2-ylmethyl-4H-[1,2,4]triazol-3-yl]-piperidin-1-yl}-(1H-indazol-3-yl)-methanone] | 1.11 |
| O=C(c1cc(Cl)ccc1F)N1CCC(c2nnc(Cn3nccn3)n2-c2ccc(Cl)cc2)CC1 [Example 399, (5-Chloro-2-fluoro-phenyl)-{4-[4-(4-chloro-phenyl)-5-[1,2,3]triazol-2-ylmethyl-4H-[1,2,4]triazol-3-yl]-piperidin-1-yl}-methanone] | 1.99 |
| O=C(c1ccc(C(F)F)cc1)N1CCC(c2nnc(Cn3nccn3)n2-c2ccc(Cl)cc2)CC1 [Example 206, {4-[4-(4-Chloro-phenyl)-5-[1,2,3]triazol-2-ylmethyl-4H-[1,2,4]triazol-3-yl]-piperidin-1-yl}-(4-difluoromethyl-phenyl)-methanone] | 2.43 |
